These results are taken from ChEMBL document CHEMBL1201862, “PubChem BioAssay data set” (2004).

Among the test systems are SK-MEL-2; Hs-578T; LOX IMVI; OVCAR-8; M14; HCT-116; U-251; OVCAR-4; UO-31; TK-10; NCI-H460; MDA-N; SF-268; SK-OV-3; Malme-3M; RPMI-8226; SNB-19; HOP-62; SK-MEL-28; A498.
Holding throughout (test): NCI anticancer screen, dose series, 48 h

The structures appear in SMILES notation.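 1) Cells in 96-well plates. 2) Compound, 48 h, 5 concentrations. 3) Linear interpolation between surrounding doses. 4) Unreached endpoint = highest concentration. GI50 is the concentration that inhibits growth by half.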 Active and inactive are the calls of the source. Cut-off read from the data, not from the text of the source: active = GI50 up to about 1.1 µM and inactive = higher.

For the compound `S=c1[nH]nc(COc2ccc3c(c2)CCCC3)n1/N=C/c1ccc(Cl)cc1`, the GI50 was 18.2 µM (inactive) in the test with SK-MEL-2; 21.6 µM (inactive) with Hs-578T; 20.2 µM (inactive) in the test with LOX IMVI; 16.6 µM (inactive) in the test with OVCAR-8; 18 µM (inactive) in the test on M14; 14.5 µM (inactive) in the test on HCT-116. Further, the GI50 with U-251 was 19.1 µM (inactive); in the test on OVCAR-4, 18.1 µM (inactive); in the test on UO-31, 17.1 µM (inactive); in the test on TK-10, 20.1 µM (inactive); in the test with NCI-H460, 15.8 µM (inactive); in the test with MDA-N it was 17.7 µM (inactive). Further, the GI50 in the test with SF-268 was 17.9 µM (inactive); with SK-OV-3 it was 18.1 µM (inactive); in the test on Malme-3M, 17 µM (inactive); with RPMI-8226, 17.3 µM (inactive); with SNB-19 it was 19.5 µM (inactive); in the test with HOP-62, 15.9 µM (inactive). Also, in the test with SK-MEL-28, the GI50 was 18.2 µM (inactive).
On to `CN(C)Cc1cc(/C=C/C(=O)c2ccc(Cl)c(Cl)c2)cc(CN(C)C)c1O`, for which the GI50 with SK-MEL-2 is 14 µM (inactive); with OVCAR-8, 13.6 µM (inactive); in the test on M14, 13 µM (inactive); in the test with HCT-116, 12.8 µM (inactive); in the test on A498, 16.1 µM (inactive); with UO-31 it was 6.46 µM (inactive). In addition, the GI50 in the test with TK-10 is 12.4 µM (inactive); in the test with NCI-H460 it was 10.4 µM (inactive); with MDA-N, 11.2 µM (inactive); in the test on SF-268 it was 10.8 µM (inactive); with SK-OV-3 it was 21.8 µM (inactive); in the test on Malme-3M, 9.59 µM (inactive). In addition, the GI50 in the test on RPMI-8226 was 13.4 µM (inactive); in the test on SNB-19, 15 µM (inactive); in the test on HOP-62 it was 15.5 µM (inactive); in the test with SK-MEL-28, 12.5 µM (inactive).
On to `CCP(=O)(CC)C(Cl)(Cl)C(=O)NC`, for which the GI50 in the test with SK-MEL-2, in the test with Hs-578T, in the test with LOX IMVI, with OVCAR-8, with M14 and in the test on HCT-116 was > 100 µM (inactive) each time. Further, the GI50 with U-251, in the test on OVCAR-4, in the test on UO-31, in the test on TK-10, in the test on NCI-H460 and in the test on MDA-N was > 100 µM (inactive) throughout. Further, the GI50 in the test with SK-OV-3, with RPMI-8226, with SNB-19, with HOP-62 and with SK-MEL-28 was > 100 µM (inactive) throughout.
As for `CN(C)S(=O)(=O)n1cnc(CO)c1`, the GI50 in the test on SK-MEL-2, in the test with LOX IMVI, in the test with M14, with HCT-116, with U-251 and in the test with A498 was > 100 µM (inactive) in each case. In addition, the GI50 with OVCAR-4, in the test on UO-31, in the test on TK-10, in the test with NCI-H460, in the test with MDA-N and with SF-268 was > 100 µM (inactive) throughout. Also, the GI50 in the test with SK-OV-3, in the test with Malme-3M, in the test with RPMI-8226, in the test on SNB-19, in the test with HOP-62 and in the test with SK-MEL-28 was > 100 µM (inactive) throughout.
As to `C/C(=C/C(=O)N(C)c1ccccc1Cl)O[Si](C(C)C)(C(C)C)C(C)C`, the GI50 is 18.7 µM (inactive) in the test with LOX IMVI; 20.7 µM (inactive) with OVCAR-8; 27.5 µM (inactive) in the test on M14; 17.8 µM (inactive) in the test on HCT-116; 20 µM (inactive) with U-251; > 10 µM (inactive) in the test on A498. For the same compound, the GI50 is 61.2 µM (inactive) in the test on OVCAR-4; 19.9 µM (inactive) in the test with UO-31; 33.5 µM (inactive) in the test with TK-10; 26.9 µM (inactive) with NCI-H460; 21.3 µM (inactive) with MDA-N; 21.8 µM (inactive) with SF-268. Besides, the GI50 was 34.2 µM (inactive) in the test with SK-OV-3; 23.9 µM (inactive) in the test with Malme-3M; 24.8 µM (inactive) in the test on RPMI-8226; 23.7 µM (inactive) with SNB-19; 26.8 µM (inactive) with HOP-62; 32.8 µM (inactive) in the test with SK-MEL-28.
For `CC(C)(C)C(=O)N1CCN(C=O)C1=S`, the GI50 is > 100 µM (inactive) in the test with SK-MEL-2; 58.5 µM (inactive) with Hs-578T; 34.2 µM (inactive) in the test with LOX IMVI; 36.5 µM (inactive) in the test on OVCAR-8; 31 µM (inactive) with M14; > 100 µM (inactive) with HCT-116. Also, the GI50 is 80.7 µM (inactive) in the test with U-251; 18.7 µM (inactive) in the test on A498; > 100 µM (inactive) in the test on OVCAR-4; 0.0693 µM (active) in the test on UO-31; 92 µM (inactive) in the test on TK-10; > 100 µM (inactive) in the test on NCI-H460. The GI50 with SF-268 was 80.4 µM (inactive); in the test on SK-OV-3, > 100 µM (inactive); in the test with Malme-3M it was 61.4 µM (inactive); in the test on RPMI-8226, 24.8 µM (inactive); in the test with SNB-19, > 100 µM (inactive); with HOP-62, > 100 µM (inactive). For the same compound, the GI50 in the test with SK-MEL-28 is 50.4 µM (inactive).
Take `O=c1c(-c2ccccc2)c(SCCCN2CCN(c3cccc(Cl)c3)CC2)n(-c2ccccc2)c(=S)n1-c1ccccc1`: the GI50 in the test with SK-MEL-2, in the test on Hs-578T, in the test with LOX IMVI, with OVCAR-8, with U-251 and in the test on A498 was > 100 µM (inactive) throughout. Further, the GI50 in the test on OVCAR-4 was 23.3 µM (inactive); in the test on TK-10, > 100 µM (inactive); in the test with NCI-H460 it was > 100 µM (inactive); in the test with SK-OV-3, > 100 µM (inactive); with Malme-3M it was > 100 µM (inactive); in the test with RPMI-8226, > 100 µM (inactive). For the same compound, the GI50 with HOP-62 and in the test on SK-MEL-28 was > 100 µM (inactive) in each case.
Turning to `Cc1cc(C)c(/C=C(\C(=C/c2c(C)cc(C)cc2C)[N+](=O)[O-])[N+](=O)[O-])c(C)c1`, the GI50 was > 100 µM (inactive) with SK-MEL-2; 43.4 µM (inactive) in the test with LOX IMVI; > 100 µM (inactive) in the test with M14; > 100 µM (inactive) in the test on HCT-116; > 100 µM (inactive) with U-251; > 100 µM (inactive) in the test on OVCAR-4. For the same compound, the GI50 is > 100 µM (inactive) in the test with UO-31; > 100 µM (inactive) with TK-10; 46.7 µM (inactive) in the test with NCI-H460; > 100 µM (inactive) with MDA-N; > 100 µM (inactive) with SK-OV-3; 1.31 µM (inactive) with RPMI-8226. Moreover, the GI50 in the test on SNB-19, with HOP-62 and with SK-MEL-28 was > 100 µM (inactive) each time.
Turning to `O=c1c(C(c2ccc3ccccc3c2)c2c(O)oc3cc(O)ccc3c2=O)c(O)oc2cc(O)ccc12`, the GI50 with SK-MEL-2 is > 100 µM (inactive); in the test on Hs-578T it was 21.3 µM (inactive); in the test on LOX IMVI, 32.7 µM (inactive); in the test with OVCAR-8, 71 µM (inactive); with M14, > 100 µM (inactive); in the test on HCT-116 it was > 100 µM (inactive). Moreover, the GI50 with U-251 was 41.5 µM (inactive); in the test on A498, > 100 µM (inactive); in the test on UO-31, 5.22 µM (inactive); in the test with TK-10 it was > 100 µM (inactive); with NCI-H460, 41.3 µM (inactive); in the test on SF-268 it was 15.9 µM (inactive). For the same compound, the GI50 in the test with SK-OV-3 is > 100 µM (inactive); in the test with RPMI-8226, 27.5 µM (inactive); in the test on SNB-19, 11.2 µM (inactive); in the test with HOP-62, > 100 µM (inactive); with SK-MEL-28, > 100 µM (inactive).
Take `O=c1[nH]nc(NNc2ccccc2)c2nnn(C3CCCCC3)c12`: the GI50 in the test on SK-MEL-2 is > 100 µM (inactive); in the test on LOX IMVI, > 100 µM (inactive); with OVCAR-8 it was 88.1 µM (inactive); in the test with M14, > 100 µM (inactive); in the test on HCT-116, > 100 µM (inactive); in the test on U-251, > 100 µM (inactive). In addition, the GI50 with OVCAR-4 was > 100 µM (inactive); in the test with UO-31, > 100 µM (inactive); with TK-10, > 100 µM (inactive); with NCI-H460 it was 77.6 µM (inactive); in the test with MDA-N it was > 100 µM (inactive); in the test with Malme-3M, > 100 µM (inactive). Also, the GI50 with RPMI-8226, in the test on SNB-19, in the test with HOP-62 and with SK-MEL-28 was > 100 µM (inactive) in each case.
Consider `CCOC(=O)CCC(NC(=O)OCc1ccccc1)C(=O)NC(CCC(=O)OCC)C(=O)NC(CCC(=O)OCC)C(=O)NC(CCC(=O)OCC)C(=O)NC(CCC(=O)OCC)C(=O)NC(CCC(=O)OCC)C(=O)NC(CCC(=O)OCC)C(=O)OCC` (configuration not stated), for which the GI50 with SK-MEL-2, in the test with LOX IMVI, in the test with OVCAR-8, in the test with M14, with HCT-116 and with U-251 was > 100 µM (inactive) throughout. For the same compound, the GI50 in the test on A498 is 84.9 µM (inactive); in the test on OVCAR-4, > 100 µM (inactive); in the test on UO-31, 79.4 µM (inactive); in the test with TK-10, > 100 µM (inactive); with NCI-H460, > 100 µM (inactive); in the test on MDA-N, > 100 µM (inactive). Moreover, the GI50 is > 100 µM (inactive) with SF-268; 90.6 µM (inactive) in the test with Malme-3M; > 100 µM (inactive) in the test with RPMI-8226; > 100 µM (inactive) in the test with SNB-19; > 100 µM (inactive) in the test on HOP-62; > 100 µM (inactive) with SK-MEL-28.
